These results are taken from patent publication US11840686B2, “Modulation of prekallikrein (PKK) expression” (Ionis Pharmaceuticals, Inc., priority 2013, dated 2023).

Strand notation (5' to 3'): a small letter for the sugar, then the base; units joined by * are phosphorothioate-linked, units joined directly phosphodiester-linked; [ ] holds rarer units or linkages, { } end groups; capitals alone tell only the bases. e = 2'-O-(2-methoxyethyl) (MOE); k = constrained ethyl (cEt); [5mC] = 5-methylcytosine; d = 2'-deoxy (DNA)

In this data set the test system is human PKK mRNA. Kind of data set: Antisense inhibition of human PKK mRNA in HepaRG cells, 1,000 nM, MOE/deoxy/cEt oligonucleotides (Example 3). The data set is classed as cell-based. In outline:
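HepaRG cells at 20,000 per well electroporated with 1,000 nM 16-mer MOE/cEt/deoxy gapmers (phosphorothioate, 5-methylcytosine). After about 24 h, PKK mRNA measured by qRT-PCR with primer probe set RTS3454, normalized to RIBOGREEN total RNA. Reported as percent inhibition versus untreated cells.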

The mark [1] stands for this setting: Table 27, HepaRG cells, 1,000 nM antisense oligonucleotide, human PKK mRNA.
[2] abbreviates: HepaRG cells, electroporation with 1,000 nM antisense oligonucleotide, approx. 24 hours, PKK mRNA by RT-PCR (RTS3454), relative to untreated control cells, Table 25 experiment.
Where [3] appears, read: Table 30, human PKK mRNA, HepaRG cells, 1,000 nM antisense oligonucleotide.
Setting [4] is: HepaRG cells, 1,000 nM antisense oligonucleotide, Table 29.
Setting [5] is: Table 21 experiment, HepaRG cells, electroporation with 1,000 nM antisense oligonucleotide, approx. 24 hours, PKK mRNA by RT-PCR (RTS3454), relative to untreated control cells.
Where [6] appears, read: HepaRG cells, electroporation with 1,000 nM antisense oligonucleotide, approximately 24 hours, primer probe set RTS3454, relative to untreated control cells, experiment of Table 24.
Where [7] appears, read: HepaRG cells, electroporation with 1,000 nM antisense oligonucleotide, approximately 24 hours, primer probe set RTS3454, relative to untreated control cells, experiment of Table 23.
Where [8] appears, read: Table 20, HepaRG cells, electroporation with 1,000 nM antisense oligonucleotide, approximately 24 hours, PKK mRNA by RT-PCR (RTS3454), relative to untreated control cells.
Where [9] appears, read: Table 22 experiment, HepaRG cells, electroporation with 1,000 nM antisense oligonucleotide, approx. 24 hours, PKK mRNA by RT-PCR (RTS3454), relative to untreated control cells.
Setting [10] is: HepaRG cells, electroporation with 1,000 nM antisense oligonucleotide, approx. 24 hours, PKK mRNA by RT-PCR (RTS3454), relative to untreated control cells, Table 26 experiment.
[11] abbreviates: Table 19, HepaRG cells, electroporation with 1,000 nM antisense oligonucleotide, approximately 24 hours, PKK mRNA by RT-PCR (RTS3454), relative to untreated control cells.

“548318 (eA*e[5mC]*kT*dG*d[5mC]*dA*d[5mC]*d[5mC]*d[5mC]*d[5mC]*dA*d[5mC]*dA*kT*kA*eT; antisense) [compound 548318]”: the “% inhibition” value under setting [1] was 18%. For “548162 (e[5mC]*e[5mC]*kT*d[5mC]*dG*d[5mC]*dA*dT*dT*dG*dT*d[5mC]*dA*kG*k[5mC]*e[5mC]; antisense) [compound 548162]”, the “% inhibition” value under setting [2] is 25%. For the substance “548402 (e[5mC]*e[5mC]*k[5mC]*d[5mC]*dA*dT*d[5mC]*dT*d[5mC]*dG*dA*dA*dG*k[5mC]*k[5mC]*e[5mC]; antisense) [compound 548402]”, under setting [3], the “% inhibition” value is recorded as 45%. As for “548192 (e[5mC]*e[5mC]*kT*dG*dT*d[5mC]*dA*dA*d[5mC]*dA*dT*dA*dT*kT*k[5mC]*e[5mC]; antisense) [compound 548192]”, the “% inhibition” value under setting [2] is 65%. On the same count and under the same terms, for “548158 (eG*e[5mC]*kA*dT*dT*dG*dT*d[5mC]*dA*dG*d[5mC]*d[5mC]*d[5mC]*k[5mC]*kT*eG; antisense) [compound 548158]” the value was 18%. Take “548543 (antisense eG*eA*kT*d[5mC]*d[5mC]*dA*d[5mC]*d[5mC]*d[5mC]*dA*dT*dG*dA*k[5mC]*k[5mC]*eT) [compound 548543]”: the “% inhibition” value under setting [4] turned out to be 32%. On to “547757 (antisense eG*eA*kG*dT*d[5mC]*dT*d[5mC]*dT*dT*dG*dT*d[5mC]*dA*k[5mC]*kT*eT) [compound 547757]”, for which, under setting [5], the “% inhibition” value was 69%.

As to “548023 (eG*e[5mC]*kT*dT*d[5mC]*dA*d[5mC]*d[5mC]*dT*dG*d[5mC]*dA*dG*kG*k[5mC]*eT; antisense) [compound 548023]”, the “% inhibition” value under setting [6] worked out at 58%. As to “548568 (eA*eT*kT*dG*dA*d[5mC]*dA*dA*d[5mC]*d[5mC]*dA*dT*d[5mC]*k[5mC]*kT*eA; antisense) [compound 548568]”, the “% inhibition” value under setting [4] was 27%. “547975 (antisense e[5mC]*eA*kA*dA*dG*dT*d[5mC]*dA*dA*d[5mC]*dT*d[5mC]*d[5mC]*k[5mC]*kG*eG) [compound 547975]”: under setting [7], the “% inhibition” value is given as 44%.

Regarding “548307 (eT*eT*k[5mC]*dT*dG*d[5mC]*dA*dA*d[5mC]*dT*dG*dA*dG*k[5mC]*k[5mC]*eT; antisense) [compound 548307]”, the “% inhibition” value under setting [1] turned out to be 6%. Regarding “547904 (eA*e[5mC]*kT*d[5mC]*dA*dG*d[5mC]*dA*d[5mC]*d[5mC]*dT*dT*dT*kA*kT*eA; antisense) [compound 547904]”, the “% inhibition” value reads like this: under setting [8], 56%; under setting [9], 41%.

“547869 (antisense eA*eA*k[5mC]*d[5mC]*dT*dT*dA*dG*dA*d[5mC]*dA*d[5mC]*dA*kT*kT*eA) [compound 547869]”: the “% inhibition” value is, setting by setting: under setting [8], 45%; under setting [9], 77%. For the substance “548600 (eT*eG*kG*dT*dG*dG*dT*dG*dG*dG*dA*dT*dT*kG*kG*eT; antisense) [compound 548600]”, the “% inhibition” value under setting [4] turned out to be 53%. Consider “547804 (eG*eT*kG*dT*dA*d[5mC]*dA*dT*dG*dG*dA*dA*dG*k[5mC]*kT*eA; antisense) [compound 547804]”, for which, under setting [5], the “% inhibition” value stood at 22%. As to “548267 (antisense eG*eA*k[5mC]*d[5mC]*dT*d[5mC]*d[5mC]*dA*dG*dA*d[5mC]*dT*dA*k[5mC]*kT*eG) [compound 548267]”, the “% inhibition” value under setting [10] worked out at 34%. Take “548123 (antisense eA*eG*kA*d[5mC]*dT*d[5mC]*dT*dG*dG*dA*d[5mC]*dT*dG*k[5mC]*kT*eT) [compound 548123]”: the “% inhibition” value under setting [11] was 49%.

With “548135 (eT*e[5mC]*kA*dG*dA*dA*dT*dT*dT*dG*dA*d[5mC]*dT*kT*kG*eA; antisense) [compound 548135]”, the “% inhibition” value under setting [11] was determined as 46%. On the same count and under the same terms, in the case of “548150 (e[5mC]*eA*kG*dA*d[5mC]*dA*dT*dT*dG*dT*d[5mC]*d[5mC]*dT*k[5mC]*kA*eG; antisense) [compound 548150]” it was 60%. On to “548396 (eT*eA*kA*dT*dG*dA*dG*dT*dG*dG*dG*dT*dT*kA*kG*eG; antisense) [compound 548396]”, for which the “% inhibition” value under setting [3] was determined as 0%.

With “548080 (e[5mC]*e[5mC]*k[5mC]*dT*dT*d[5mC]*dT*dT*dT*dA*dT*dA*dG*k[5mC]*k[5mC]*eA; antisense) [compound 548080]”, the “% inhibition” value under setting [11] was found to be 0%.

For the substance “548350 (antisense eG*e[5mC]*kG*d[5mC]*dT*dA*dA*d[5mC]*d[5mC]*dT*d[5mC]*dA*dT*kA*kA*eA) [compound 548350]”, the “% inhibition” value under setting [1] was found to be 29%. For the substance “548431 (antisense eT*eA*k[5mC]*d[5mC]*dT*dA*dT*dA*dA*d[5mC]*dT*d[5mC]*dT*kA*kA*e[5mC]) [compound 548431]”, under setting [3], the “% inhibition” value is reported as 9%. Take “548073 (e[5mC]*eT*kT*dT*d[5mC]*dT*d[5mC]*d[5mC]*dT*dT*d[5mC]*dG*dA*kG*kA*eA; antisense) [compound 548073]”: under setting [6], the “% inhibition” value was 24%. On to “548585 (eT*eA*kG*dG*d[5mC]*dA*d[5mC]*dA*dG*dA*d[5mC]*dA*dA*k[5mC]*k[5mC]*eT; antisense) [compound 548585]”, for which, under setting [4], the “% inhibition” value is given as 33%. As to “547903 (e[5mC]*eT*k[5mC]*dA*dG*d[5mC]*dA*d[5mC]*d[5mC]*dT*dT*dT*dA*kT*kA*eG; antisense) [compound 547903]”, the “% inhibition” value is given as 62% under setting [8] and 6% under setting [9].

On to “548325 (e[5mC]*e[5mC]*k[5mC]*dA*d[5mC]*dT*dG*dA*d[5mC]*dT*dG*dA*d[5mC]*kT*kA*e[5mC]; antisense) [compound 548325]”, for which, under setting [1], the “% inhibition” value is recorded as 27%.

As for “548337 (antisense eT*eA*k[5mC]*d[5mC]*dG*d[5mC]*dT*dG*dG*dG*dT*dG*d[5mC]*kG*kG*eT) [compound 548337]”, under setting [1], the “% inhibition” value came to 10%.

As for “548442 (antisense eT*eT*k[5mC]*d[5mC]*dT*dA*dT*dA*dA*d[5mC]*dA*dG*dT*kA*kT*e[5mC]) [compound 548442]”, the “% inhibition” value under setting [3] is on record as 17%.

Regarding “548100 (antisense eA*e[5mC]*kT*d[5mC]*dA*dG*d[5mC]*dG*dA*d[5mC]*dT*dT*dT*kG*kG*eT) [compound 548100]”, under setting [11], the “% inhibition” value worked out at 25%. Turning to “548491 (antisense eT*eG*kG*d[5mC]*d[5mC]*dA*dA*dG*d[5mC]*dA*dA*d[5mC]*d[5mC]*kA*kG*eT) [compound 548491]”, the “% inhibition” value (Table 28, HepaRG cells, 1,000 nM antisense oligonucleotide, human PKK mRNA) is 57%. “548285 (antisense eG*e[5mC]*kT*dT*dA*d[5mC]*dT*dT*dA*d[5mC]*dA*dT*d[5mC]*k[5mC]*k[5mC]*eT) [compound 548285]”: the “% inhibition” value under setting [10] turned out to be 52%.

In the case of “548234 (eT*eT*kA*dT*dT*dG*dT*dA*dG*d[5mC]*d[5mC]*dA*dT*kA*k[5mC]*eA; antisense) [compound 548234]”, the “% inhibition” value under setting [10] was determined as 17%.

Consider “548203 (eT*eG*kA*d[5mC]*dT*dA*dG*dT*dG*dA*dA*dT*dG*kG*k[5mC]*eT; antisense) [compound 548203]”, for which, under setting [2], the “% inhibition” value amounted to 73%. Regarding “548446 (antisense eT*e[5mC]*k[5mC]*dT*dA*dT*dG*dT*d[5mC]*dA*d[5mC]*dT*dG*kT*kA*e[5mC]) [compound 548446]”, the “% inhibition” value under setting [3] is on record as 16%. For “547982 (antisense eA*eA*kT*d[5mC]*dA*dT*d[5mC]*dT*dT*dT*dG*dT*dG*k[5mC]*kA*eA) [compound 547982]”, the “% inhibition” value under setting [7] turned out to be 54%.
